The text below walks through data of ChEMBL document CHEMBL3132789, “Effect of the 4-substituted phenylalanine moiety of sansalvamide A peptide on antitumor activity” (Medchemcomm, 2014).

Converted amounts (≈) assume the structure as drawn. The source made the active and inactive calls. The calls are words filed in the database; no cut-off is given here. Square brackets hold non-standard residues; d marks the D form. Peptide text beside a SMILES is read from it. Phe(4-Br) = N[C@@H](Cc1ccc(Br)cc1)C(=O)O; Phe(4-Cl) = N[C@@H](Cc1ccc(Cl)cc1)C(=O)O; Phe(4-F) = N[C@@H](Cc1ccc(F)cc1)C(=O)O; Phe(4-I) = N[C@@H](Cc1ccc(I)cc1)C(=O)O; Hica(2S) = CC(C)C[C@H](O)C(=O)O

Data set [1] relates to HCT-116. The data set can be described thus: Cytotoxicity against human HCT116 cells after 72 hrs by [3H]-thymidine uptake assay. Format: functional, cell-based.
The test system of data set [2] is A549. The data set can be described thus: Cytotoxicity against human A549 cells assessed as growth inhibition at 20 ug/ml after 72 hrs by [3H]-thymidine uptake assay. Format: functional. To be noted: read-out: GI.
Data set [3] relates to K562. As to the kind of experiment: Cytotoxicity against human K562 cells assessed as growth inhibition at 20 ug/ml after 72 hrs by [3H]-thymidine uptake assay. To be noted: read-out: GI. Format: functional.
Data set [4] deals with HCT-15. As to the kind of experiment: Cytotoxicity against human HCT15 cells assessed as growth inhibition at 20 ug/ml after 72 hrs by [3H]-thymidine uptake assay. Format: functional. To be noted: read-out: GI.
Data set [5] has as its system HT-29. As to the kind of experiment: Cytotoxicity against human HT-29 cells assessed as growth inhibition at 20 ug/ml after 72 hrs by [3H]-thymidine uptake assay. Format: functional. To be noted: read-out: GI.
In data set [6] the test system is MDA-MB-231. The data set can be described thus: Cytotoxicity against human MDA-MB-231 cells assessed as growth inhibition at 20 ug/ml after 72 hrs by [3H]-thymidine uptake assay. The note with it: read-out: GI. Format: functional.
Data set [7] in a line: Induction of apoptosis in human VSMC cells assessed as morphological changes at 1.8 ug/ml after 24 hrs by light microscopy analysis. Format: cell-based.
The test system of data set [8] is HeLa. The data set can be described thus: Induction of apoptosis in human HeLa cells assessed as decrease in cell density at 1.8 ug/ml after 24 hrs by light microscopy analysis. Format: functional, cell-based.
The subject of data set [9] is HeLa. As to the kind of experiment: Induction of apoptosis in human HeLa cells assessed as membrane blebbing and nuclear fragmentation at 1.8 ug/ml after 24 hrs by light microscopy analysis. Format: functional, cell-based.
The subject of data set [10] is HeLa. The data set can be described thus: Induction of apoptosis in human HeLa cells assessed as rounded and smaller cells at 1.8 ug/ml after 24 hrs by light microscopy analysis. Format: functional, cell-based.
The test system of data set [11] is K562. As to the kind of experiment: Cytotoxicity against human K562 cells after 72 hrs by [3H]-thymidine uptake assay. Format: functional, cell-based.
In data set [12] the test system is A549. The data set can be described thus: Cytotoxicity against human A549 cells after 72 hrs by [3H]-thymidine uptake assay. Format: functional, cell-based.
The subject of data set [13] is HCT-15. As to the kind of experiment: Cytotoxicity against human HCT15 cells after 72 hrs by [3H]-thymidine uptake assay. Format: functional, cell-based.
Data set [14] deals with HT-29. As to the kind of experiment: Cytotoxicity against human HT-29 cells after 72 hrs by [3H]-thymidine uptake assay. Format: functional, cell-based.
Data set [15] deals with HeLa. The data set can be described thus: Cytotoxicity against human HeLa cells after 72 hrs by [3H]-thymidine uptake assay. Format: functional, cell-based.
Data set [16] has as its system MDA-MB-231. The data set can be described thus: Cytotoxicity against human MDA-MB-231 cells after 72 hrs by [3H]-thymidine uptake assay. Format: functional, cell-based.
In data set [17] the test system is A549. As to the kind of experiment: Cytotoxicity against human A549 cells assessed as growth inhibition at 2 ug/ml after 72 hrs by [3H]-thymidine uptake assay. Format: functional. The note with it: read-out: GI.
The test system of data set [18] is K562. As to the kind of experiment: Cytotoxicity against human K562 cells assessed as growth inhibition at 2 ug/ml after 72 hrs by [3H]-thymidine uptake assay. Format: functional. To be noted: read-out: GI.
In data set [19] the test system is HCT-15. The data set can be described thus: Cytotoxicity against human HCT15 cells assessed as growth inhibition at 2 ug/ml after 72 hrs by [3H]-thymidine uptake assay. Format: functional. The note with it: read-out: GI.
Data set [20] relates to HT-29. As to the kind of experiment: Cytotoxicity against human HT-29 cells assessed as growth inhibition at 2 ug/ml after 72 hrs by [3H]-thymidine uptake assay. Format: functional. To be noted: read-out: GI.
The test system of data set [21] is HeLa. The data set can be described thus: Cytotoxicity against human HeLa cells assessed as growth inhibition at 2 ug/ml after 72 hrs by [3H]-thymidine uptake assay. To be noted: read-out: GI. Format: functional.
The subject of data set [22] is MDA-MB-231. The data set can be described thus: Cytotoxicity against human MDA-MB-231 cells assessed as growth inhibition at 2 ug/ml after 72 hrs by [3H]-thymidine uptake assay. To be noted: read-out: GI. Format: functional.

With `CC(C)C[C@@H]1NC(=O)[C@H](Cc2ccc(I)cc2)NC(=O)[C@H](CC(C)C)NC(=O)[C@H](C(C)C)NC(=O)[C@H](CC(C)C)NC1=O` (cyclo(LLVL[Phe(4-I)])), the IC50 – broadly, the concentration that inhibits the measured activity by half – in data set [1] worked out at 1.12 µg/mL (≈ 1.57 µM).

In turn, `CC(C)C[C@@H]1NC(=O)[C@H](C(C)C)NC(=O)[C@H](CC(C)C)OC(=O)[C@H](CC(C)C)NC(=O)[C@H](Cc2ccc(Br)cc2)NC1=O` (cyclo(L[Phe(4-Br)]L[Hica(2S)]V)) registered an IC50 in data set [1] of 4.5 µg/mL (≈ 6.76 µM).

As for `CC(C)C[C@@H]1NC(=O)[C@H](Cc2ccc(F)cc2)NC(=O)[C@H](CC(C)C)NC(=O)[C@H](C(C)C)NC(=O)[C@H](CC(C)C)NC1=O` (cyclo(LLVL[Phe(4-F)])), the inhibition of growth at 20 µg/mL in data set [2] is 30.8%; in data set [3] it was 58.2%; in [4], 21%; in data set [5], 0%; in data set [6], 12.3%.

In the case of `COc1ccc(C[C@@H]2NC(=O)[C@H](CC(C)C)NC(=O)[C@H](C(C)C)NC(=O)[C@H](CC(C)C)NC(=O)[C@H](CC(C)C)NC2=O)cc1` (cyclo(LLVLY(Me))), in data set [7], the Activity result is “Non-toxic”. Also, the result in data set [8], in data set [9] and in data set [10] was Active. Further, the 50% inhibitory concentration (IC50) in data set [11] turned out to be 2.87 µM; in [12] it was 2.41 µM; in data set [13], 3.54 µM; in data set [14] it was 3.38 µM; in [15], 3.22 µM; in data set [16], 11.1 µM. The inhibition of growth at 2 µg/mL in data set [17] was 91.3%; in data set [18], 86.5%; in data set [19], 78.8%; in data set [20] it was 76.4%; in data set [21] it was 50.9%; in [22], 40.5%. The inhibition of growth at 20 µg/mL in [2] was found to be 98.2%; in data set [3], 93.8%; in data set [4], 80.8%; in data set [5] it was 88.5%; in data set [6] it was 43.2%.

Regarding `CC(C)C[C@@H]1NC(=O)[C@H](Cc2ccc(Br)cc2)NC(=O)[C@H](CC(C)C)NC(=O)[C@H](C(C)C)NC(=O)[C@H](CC(C)C)NC1=O` (cyclo([Phe(4-Br)]LLVL)), the inhibition of growth at 20 µg/mL in data set [4] was found to be 74.3%; in [5] it was 80.2%; in data set [6], 89.3%. In [1], this compound returned an IC50 of 0.58 µg/mL (≈ 0.873 µM).

Regarding `CC(C)C[C@@H]1NC(=O)[C@H](Cc2ccccc2)NC(=O)[C@H](CC(C)C)NC(=O)[C@H](C(C)C)NC(=O)[C@H](CC(C)C)NC1=O` (cyclo(FLLVL)), the inhibition of growth at 20 µg/mL in data set [2] stood at 26.6%; in data set [3], 45.3%; in data set [4], 23.1%; in data set [5] it was 21.5%; in data set [6] it was 23.6%. Further, the IC50 in data set [1] was determined as 0.98 µg/mL (≈ 1.67 µM).

`CC(C)C[C@@H]1NC(=O)[C@H](C(C)C)NC(=O)[C@H](CC(C)C)OC(=O)[C@H](CC(C)C)NC(=O)[C@H](Cc2ccc(I)cc2)NC1=O` (cyclo(L[Phe(4-I)]L[Hica(2S)]V)) had an IC50 in [1] of 11.3 µg/mL (≈ 15.9 µM).

With `CC(C)C[C@@H]1NC(=O)[C@H](Cc2ccc(O)cc2)NC(=O)[C@H](CC(C)C)NC(=O)[C@H](C(C)C)NC(=O)[C@H](CC(C)C)NC1=O` (cyclo(LLVLY)), the inhibition of growth at 20 µg/mL turned out to be 52% in [4], 34.6% in data set [5] and 42.5% in data set [6].

The compound `CC(C)C[C@@H]1NC(=O)[C@H](C(C)C)NC(=O)[C@H](CC(C)C)OC(=O)[C@H](CC(C)C)NC(=O)[C@H](Cc2ccccc2)NC1=O` (cyclo(FL[Hica(2S)]VL)) had an IC50 in data set [1] of 9.8 µg/mL (≈ 16.7 µM).

For `CC(C)C[C@@H]1NC(=O)[C@H](Cc2ccc(Cl)cc2)NC(=O)[C@H](CC(C)C)NC(=O)[C@H](C(C)C)NC(=O)[C@H](CC(C)C)NC1=O` (cyclo(LLVL[Phe(4-Cl)])), the inhibition of growth at 20 µg/mL is 5.2% in data set [2]; 3.57% in [3]; 1.21% in data set [4]; 1.23% in data set [5]; 15% in [6].
